# Assay results: patent publication US20020058288A1, “TOXOPLASMA GONDII GLYCOCONJUGATES” (priority 1995, published 2002)
# Legend:
# [1] = tested on: binding of mAb T54E10 to the n-butanol species; experiment: ELISA inhibition-binding study, mAb T54E10 on n-butanol fraction GPI species; parameters: species or system mouse
# Protocol: The GPI species of the n-butanol fraction were coated on microtiter wells at a coat concentration which corresponds to 10^6 tachyzoites per well. […] Ethanolamine (10 mM) itself was able to inhibit the binding of mAb T54E10 by 50%. All other compounds tested were not able to inhibit the binding of the monoclonal antibody. However, the binding of human anti-Toxoplasma antibodies was not affected by any of the compounds tested.
# FIG. 6: Inhibition ELISA: Inhibition ELISA using glycolipids contained in the butanol phase as antigen and mAb T54E10
# [2] = tested on: the trypanosome; settings: cited from earlier work
smiles,measurement,setting,value
NCCO [Ethanolamine],Inhibition of the binding of mAb T54E10,[1]; 10 mM,50%
CCCOCCCCCCCCCC(=O)O [10-(propoxy) decanoic acid],Toxicity to the trypanosome,[2],selective toxicity
NCCOP(=O)(O)O [ethanolamine-phosphate],Inhibition of binding of mAb T54E10 to n-butanol species,"[1]; coat corresponding to 10^6 tachyzoites per well, FIG. 6",inhibited
